Laboratory results reported in article PMC9127186, “Molecular Basis Underlying Hepatobiliary and Renal Excretion of Phenolic Acids of Salvia miltiorrhiza Roots (Danshen)” (Frontiers in Pharmacology, 2022).

Legend:
rat Oat1 = molecular target: T1, rat Oat1 (Rattus norvegicus, UniProt O35956); assay: Cellular transport assay, HEK-293 cells expressing rat Oat1; conditions: for TransportTC/TransportMC ratio (net transport ratio): 10 min; for K m: rat renal basolateral uptake Oat1, 5 min incubation, concentrations in Table 1
T1 sequence (O35956 1-551): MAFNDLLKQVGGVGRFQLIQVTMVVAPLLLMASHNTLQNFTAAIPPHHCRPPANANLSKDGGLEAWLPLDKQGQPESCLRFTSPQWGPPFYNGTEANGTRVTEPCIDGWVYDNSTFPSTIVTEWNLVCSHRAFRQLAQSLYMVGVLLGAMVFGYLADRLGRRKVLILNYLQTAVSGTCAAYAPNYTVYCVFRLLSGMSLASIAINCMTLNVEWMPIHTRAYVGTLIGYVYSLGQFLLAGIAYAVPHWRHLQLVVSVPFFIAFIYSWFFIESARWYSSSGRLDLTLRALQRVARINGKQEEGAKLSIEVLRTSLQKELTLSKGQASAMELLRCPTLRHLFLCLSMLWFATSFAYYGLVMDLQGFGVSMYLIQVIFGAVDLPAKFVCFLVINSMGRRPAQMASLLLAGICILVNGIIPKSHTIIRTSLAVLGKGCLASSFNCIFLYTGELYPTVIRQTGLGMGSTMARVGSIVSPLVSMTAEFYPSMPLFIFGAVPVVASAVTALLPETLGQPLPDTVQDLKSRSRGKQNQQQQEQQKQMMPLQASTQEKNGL

human OATP1B1 = molecular target: T2, human OATP1B1 (Homo sapiens, UniProt Q9Y6L6); assay: Cellular transport assay, HEK-293 cells expressing human OATP1B1; conditions: for TransportTC/TransportMC ratio (net transport ratio): 10 min
T2 sequence (Q9Y6L6 1-691): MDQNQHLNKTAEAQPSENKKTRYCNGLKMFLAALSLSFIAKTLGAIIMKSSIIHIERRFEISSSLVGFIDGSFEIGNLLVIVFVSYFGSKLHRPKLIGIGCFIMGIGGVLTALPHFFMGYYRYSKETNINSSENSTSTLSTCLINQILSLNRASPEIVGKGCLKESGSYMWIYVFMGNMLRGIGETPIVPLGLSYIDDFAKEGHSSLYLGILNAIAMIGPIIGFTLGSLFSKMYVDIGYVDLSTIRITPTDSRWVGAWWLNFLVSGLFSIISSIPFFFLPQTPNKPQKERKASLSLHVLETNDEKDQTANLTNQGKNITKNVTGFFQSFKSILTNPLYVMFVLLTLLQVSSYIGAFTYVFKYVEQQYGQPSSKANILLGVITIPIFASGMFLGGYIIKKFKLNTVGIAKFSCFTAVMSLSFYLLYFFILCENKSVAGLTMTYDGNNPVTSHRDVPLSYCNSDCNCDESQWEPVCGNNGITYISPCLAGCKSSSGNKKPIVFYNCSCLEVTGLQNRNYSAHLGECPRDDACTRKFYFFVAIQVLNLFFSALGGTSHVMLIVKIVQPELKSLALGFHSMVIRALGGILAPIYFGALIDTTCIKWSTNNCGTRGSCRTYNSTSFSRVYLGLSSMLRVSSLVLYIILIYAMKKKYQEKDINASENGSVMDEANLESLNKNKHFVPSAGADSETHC
In short: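 Net transport ratio: uptake rate into transporter-transfected HEK-293 cells divided by that into mock (empty-vector) cells, tested 48 h after transient transfection. Incubations lasted 5 min, within linear uptake, with LC/MS analysis.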

rat Oatp1b2 = molecular target: T3, rat Oatp1b2 (Rattus norvegicus, UniProt Q9QZX8); assay: Cellular transport assay, HEK-293 cells expressing rat Oatp1b2; conditions: for TransportTC/TransportMC ratio (net transport ratio): 10 min
T3 sequence (Q9QZX8 1-687): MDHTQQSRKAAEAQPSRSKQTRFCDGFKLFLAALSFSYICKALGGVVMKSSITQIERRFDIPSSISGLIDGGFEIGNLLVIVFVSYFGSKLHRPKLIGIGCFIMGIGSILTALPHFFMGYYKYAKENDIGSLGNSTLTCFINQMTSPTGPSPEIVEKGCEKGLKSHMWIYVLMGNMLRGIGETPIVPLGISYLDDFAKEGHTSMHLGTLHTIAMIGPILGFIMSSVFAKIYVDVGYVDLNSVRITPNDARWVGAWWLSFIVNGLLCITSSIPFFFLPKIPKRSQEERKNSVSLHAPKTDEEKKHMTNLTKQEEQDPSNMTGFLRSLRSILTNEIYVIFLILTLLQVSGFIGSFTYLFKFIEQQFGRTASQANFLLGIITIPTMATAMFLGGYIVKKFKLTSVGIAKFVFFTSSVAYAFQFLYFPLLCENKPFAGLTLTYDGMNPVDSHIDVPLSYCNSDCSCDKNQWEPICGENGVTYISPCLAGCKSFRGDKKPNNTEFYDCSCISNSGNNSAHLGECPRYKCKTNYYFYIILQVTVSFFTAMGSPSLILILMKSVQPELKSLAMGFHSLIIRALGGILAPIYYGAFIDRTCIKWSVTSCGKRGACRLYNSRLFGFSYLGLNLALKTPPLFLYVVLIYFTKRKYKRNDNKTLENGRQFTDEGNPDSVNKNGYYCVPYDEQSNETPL

[1] = Danshen phenolic acid at 100 μM final concentration, rat Oat1-transfected vs mock cells
[2] = Danshen phenolic acid at 100 μM final concentration, human OATP1B1-transfected vs mock cells
[3] = human hepatic sinusoidal uptake OATP1B1, 5 min incubation, concentrations in Table 1
[4] = Danshen phenolic acid at 100 μM final concentration, rat Oatp1b2-transfected vs mock cells
[5] = rat hepatic sinusoidal uptake Oatp1b2, 5 min incubation, concentrations in Table 1

K m (human OATP1B1; [3])	Molecule	TransportTC/TransportMC ratio (net transport ratio) (rat Oat1; [1])	substrate of human OATP1B1 (human OATP1B1)	TransportTC/TransportMC ratio (net transport ratio) (human OATP1B1; [2])	substrate of rat Oatp1b2 (rat Oatp1b2)	TransportTC/TransportMC ratio (net transport ratio) (rat Oatp1b2; [4])	K m (rat Oatp1b2; [5])	K m (rat Oat1)	other results
403 ± 85 µM	O=C(O)Cc1c(/C=C/C(=O)O[C@H](Cc2ccc(O)c(O)c2)C(=O)O)ccc(O)c1O [Salvianolic acid D, salvianolic acid D]	11.5 ± 2.9	substrates	5.38 ± 0.83	substrates	16.0 ± 0.8	464 ± 62 µM	24.4 ± 3.3 µM	microsomal CLint (rat Oat1; rat): 4.72 µL/min/mg; microsomal CLint (human OATP1B1; human): 0.22 µL/min/mg; microsomal CLint (rat Oatp1b2; rat): 1.23 µL/min/mg
	O=C(O)C(O)Cc1ccc(O)c(O)c1 (stereo not shown) [Tanshinol, tanshinol]							154 ± 13 µM	microsomal CLint (rat Oat1; rat, other cell line): 4.13 µL/min/mg
428 ± 67 µM	O=C(/C=C/c1ccc(O)c2c1[C@H](C(=O)O)[C@@H](c1ccc(O)c(O)c1)O2)O[C@H](Cc1ccc(O)c(O)c1)C(=O)O [Lithospermic acid, lithospermic acid]	1.36 ± 0.35	substrates	3.99 ± 0.24	substrates	11.6 ± 0.7	91.3 ± 10.6 µM		microsomal CLint (human OATP1B1; human): 0.06 µL/min/mg; microsomal CLint (rat Oatp1b2; rat): 0.41 µL/min/mg
	O=C(/C=C/c1ccc(O)c(O)c1)O[C@H](Cc1ccc(O)c(O)c1)C(=O)O [Rosmarinic acid, rosmarinic acid]		substrates		substrates		2049 ± 418 µM	59.2 ± 4.7 µM	substrate of rat Oat1 (rat Oat1): substrates; TransportTC/TransportMC ratio (net transport ratio) (rat Oat1; rat, 100 μM): 150 ± 46; microsomal CLint (rat Oat1; rat, other cell line): 3.47 µL/min/mg; TransportTC/TransportMC ratio (net transport ratio) (human OATP1B1; human, 100 μM): 4.00 ± 0.43; microsomal CLint (human OATP1B1; human, other cell line): 0.07 µL/min/mg; TransportTC/TransportMC ratio (net transport ratio) (rat Oatp1b2; rat, 100 μM): 17.0 ± 2.8; microsomal CLint (rat Oatp1b2; rat, other cell line): 0.08 µL/min/mg
	O=C(/C=C/c1ccc(O)c(O)c1/C=C/c1ccc(O)c(O)c1)O[C@H](Cc1ccc(O)c(O)c1)C(=O)O [Salvianolic acid A, salvianolic acid A]		not a substrate		substrate		50.5 ± 12.8 µM		substrate of rat Oat1 (rat Oat1): not substrates; TransportTC/TransportMC ratio (net transport ratio) (rat Oat1; rat, 100 μM): 1.13 ± 0.64; TransportTC/TransportMC ratio (net transport ratio) (human OATP1B1; human, 100 μM): 1.21 ± 0.33; TransportTC/TransportMC ratio (net transport ratio) (rat Oatp1b2; rat, 100 μM): 7.52 ± 1.31; microsomal CLint (rat Oatp1b2; rat, other cell line): 0.38 µL/min/mg
	O=C(O)c1ccc(O)c(O)c1 [Protocatechuic acid, protocatechuic acid]	104 ± 20		0.83 ± 0.14	neither protocatechuic acid nor tanshinol was a substrate	1.32 ± 0.45		110 ± 19 µM	microsomal CLint (rat Oat1; rat): 4.07 µL/min/mg

Molecule	K m (human OATP1B1; [3])	TransportTC/TransportMC ratio (net transport ratio) (rat Oat1; [1])	substrate of human OATP1B1 (human OATP1B1)	TransportTC/TransportMC ratio (net transport ratio) (human OATP1B1; [2])	substrate of rat Oatp1b2 (rat Oatp1b2)	TransportTC/TransportMC ratio (net transport ratio) (rat Oatp1b2; [4])	K m (rat Oatp1b2; [5])	K m (rat Oat1)	other results
salvianolic acid B	58.9 ± 6.2 µM	1.56 ± 0.67	substrates	5.16 ± 1.30	substrates	30.0 ± 0.6	20.5 ± 1.9 µM		CLint (human OATP1B1; human hepatic sinusoidal uptake OATP1B1): 0.46 μL/min/mg protein; V max (human OATP1B1; [3]): 28.1 ± 1.2 pmol/min/mg protein; CLint (rat Oatp1b2; rat hepatic sinusoidal uptake Oatp1b2): 0.87 μL/min/mg protein; V max (rat Oatp1b2; [5]): 17.7 ± 0.5 pmol/min/mg protein
